Test results as given in article PMC10295897, “A Novel MDM2-Binding Chalcone Induces Apoptosis of Oral Squamous Cell Carcinoma” (Biomedicines, 2023).
Like-named read-outs stand apart in the source and are kept apart here.

Tests used:
SCC9 cells [1] = assay: MTT cell viability assay, SCC9 oral cancer cells; type: cell-based, human; conditions: for IC50: Homo sapiens, SCC-9, 48 h, MTT
Method: (§1) Human SCC-4, SCC-9, and SCC-25 cells derived from a human oral tongue SCC (squamous cell carcinoma) were obtained from the ATCC (CRL-1624, CRL-1629, and CRL-1628, respectively) and maintained in 1:1 DMEM/F12 (Dulbecco’s modified Eagle medium and Ham’s F12 medium; Gibco (Thermo Fisher, Waltham, MA, USA)) supplemented with 10% (v/v) FBS (fetal bovine serum; Invitrogen, Thermo Fisher, Waltham, MA, USA) and 400 ng/mL hydrocortisone (Sigma-Aldrich Co., St. Louis, MO, USA). Primary normal human gingival fibroblasts were obtained from the ATCC (PCS-201-018; HGF) and maintained in DMEM supplemented with 10% (v/v) FBS and were used in a maximum of six passages. The cells were grown in a humidified environment containing 5% CO2 at 37 °C. For all biological experiments, the compounds and control nutlin 3a were solubilized in 100% DMSO (all Sigma-Aldrich) to a final concentration of 10 mM. Carboplatin stock was prepared in water (Fauldcarbo®; LibbsFarmacêutica, São Paulo, SP, Brazil) and was used as a standard anticancer compound.
(§2) The viability of SCC cell lines, HT-29, HCT-116, HEP2G and primary human fibroblast cells was evaluated using the MTT assay as in [26]. Briefly, the cells were grown in duplicates in 96-well plates (5 × 10^3 cells/well) until confluence. Then, the medium was removed, fresh medium was added, and the cells were returned to the incubator in the presence of different compounds. DMSO at the same concentrations was used as a 100% cell viability control. After 48 h, the cells were incubated with 5 mg/mL MTT reagent (3-(4,5-dimethyl-2-thiazolyl)-2,5-diphenyl-2-H-tetrazolium bromide) (Sigma-Aldrich Co., St. Louis, MO, USA) for 3.5 h. After that, formazan crystals were dissolved in MTT solvent solution (DMSO/methanol 1:1 v/v), and the absorbance at 560 nm was evaluated using an EPOCH microplate spectrophotometer (BioTek Instruments, Winooski, VT, USA) with the background absorbance at 670 nm subtracted. Each of the six compounds was tested at six or seven different concentrations, ranging from 0.3 µM to 200 µM in cancer cell lines (SCC-4, SCC-9 and SCC-25) and 0.3 µM to 200 µM in primary normal human gingival fibroblasts. Controls (carboplatin, nutlin 3a) were tested at six or seven different concentrations ranging from 0.05 µM to 1000 µM in cancer cells and normal cells, depending on the compound.
(§3) The data are presented as means ± SD. IC values for the MTT assays were obtained by nonlinear regression using the […] 5.0 program (Intuitive Software for Science, San Diego, CA, USA) from at least three independent experiments. A dose–response (inhibitor) vs. response curve using the least squares method was used to determine the IC50, SD, and R^2 of the data. The selectivity index was calculated as SI = IC50 of the compound in normal oral fibroblast cells/IC50 of the same compound for each cancer cell line (SCC-4, SCC-9, SCC-25, HCT-116, HT29 and HEP2G), and the mean was calculated when indicated.
Initially, the six chalcones (1a–f) were submitted to the MTT assay to evaluate their cytotoxicity. The assay was performed using the oral cancer cell line SCC9, and the results were analyzed by a non-linear regression curve to determine the value of the half maximal inhibitory concentration (IC50). As controls, known chemotherapeutic agents were used, namely carboplatin, routinely used in the treatment of oral cancer, and doxorubicin, widely used for other types of cancers.

SCC25 cells = assay: MTT cell viability assay, SCC25 cells; type: cell-based, human
Method: as §1, §2, §3

SCC9 cells [2] = assay: Annexin V-FITC/PI apoptosis flow cytometry; type: cell-based, human; conditions: SCC9, 2 × IC50, 48 h
Method: (§4) Cells of the SCC9 cell line were plated in 6-well plates (5 × 10^5 cells/well), trypsinized 48 h after treatment, labeled using the Annexin V-FITC Apoptosis Detection Kit according to the manufacturer’s protocol (#BMS500FI/300, Invitrogen), and analyzed by FACScalibur flow cytometry as in [35]. Furthermore, 5 × 10^4 SCC-9 cells were plated in a 24-well plate containing 1 mL of DMEM/F12 with 10% FBS per well. CellEvent™ Caspase-3/7 Reagent (#R37111, Invitrogen) was diluted in a culture medium according to the manufacturer’s instructions. […] The cells were analyzed by flow cytometry after 48 h of treatment.

HCT-116 (colon cancer) = assay: MTT cell viability assay, HCT-116; type: cell-based
Method: as §2, with “Each of the six compounds was tested at six or seven different concentrations, ranging from 0.3 µM to 200 µM in cancer cell lines (SCC-4, SCC-9 and SCC-25) and 0.3 µM to 200 µM in primary normal human gingival fibroblasts. Controls (carboplatin, nutlin 3a) were tested at six or seven different concentrations ranging from 0.05 µM to 1000 µM in cancer cells and normal cells, depending on the compound.” left out
The data are presented as means ± SD. […] The selectivity index was calculated as SI = IC50 of the compound in normal oral fibroblast cells/IC50 of the same compound for each cancer cell line (SCC-4, SCC-9, SCC-25, HCT-116, HT29 and HEP2G), and the mean was calculated when indicated.

SCC-9 cells = assay: Caspase-3/7 flow cytometry; type: cell-based, human; conditions: SCC9, 2 × IC50, 48 h
Method: as §4

C57BL/6 female mice = assay: In vivo acute toxicity study; conditions: for Gross Necropsy: day 14
Method: The acute toxicity study for compound 1f was performed as in the work of Macedo et al., 2019 [24]. The assay was approved by the University Animal Ethics Board under registration number 2699110419, in accordance with Brazilian guidelines and regulations. Dosing and analysis were performed according to OECD guidelines 423 and revised by Parasuraman. The test was performed in 12-week-old C57BL/6 female mice via intraperitoneal injection. Each animal group had n = 3 and received only one intraperitoneal injection (Day 0) of compound 1f dissolved in […] PBS and 3% DMSO. The control group animals received only 3% DMSO in PBS. The first dose of the compound was 25 mg/kg; subsequent dose levels (50 mg/kg and 100 mg/kg) were determined based on the result obtained from the previous dosing. The animals were examined every day, twice a day, for mortality and morbidity for 14 days. At day 14, all animals were anesthetized (ketamine 100 mg/kg and xylazine 10 mg/kg) followed by cervical dislocation. The gross necropsy and histology of the main organs were performed. Body weight and average food consumption were measured every 7 days as an indication of morbidity, and the following signs were assessed: tremors; convulsion; salivation; diarrhea; lethargy; pain signs; increased rear arching; and defect in mobility. The necropsy included an examination of the external characteristics of the carcass; external body orifices; the abdominal, thoracic, and cranial cavities; and organs/tissues—liver, thymus, right kidney, right testicle, heart, and lung.

## Cc1cccc(C)c1-n1cc(/C=C/C(=O)c2ccccc2N)nn1 [1f, (E)-1-(2-Aminophenyl)-3-(1-(2,6-dimethylphenyl)-1H-1,2,3-triazol-4-yl)prop-2-en-1-one]
SCC9 cells [1]; 48 h, read-out: SCC9 IC50
  IC50: 3.87 µM
SCC9 cells [1]; SCC9, 48 h, read-out: IC50
  IC50: 3.87 µM
SCC9 cells [1]; selective index = IC50 HGF / IC50 SCC9
  SCC9 S.I.: 7.63
SCC25 cells; Homo sapiens, SCC-25, 48 h, MTT
  IC50: 5.03 µM
SCC25 cells; selective index = IC50 HGF / IC50 SCC25
  SCC25 S.I.: 5.88
SCC9 cells [2]
  phosphatidylserine exposure: 43.0%
HCT-116 (colon cancer); Homo sapiens, HCT-116, 48 h, MTT
  IC50: 3.99 µM
HCT-116 (colon cancer); IC50 HGF / IC50 HCT-116
  HCT-116 S.I.: 7.41
SCC-9 cells
  caspase 3/7 activity: 47.5%
C57BL/6 female mice; 25 mg/kg single i.p., 14 days
  Change in body weight: Absent
  Morbidity: Absent
C57BL/6 female mice; 25 mg/kg single i.p.
  Gross Necropsy: No alteration
C57BL/6 female mice; 50 mg/kg single i.p., 14 days
  Change in body weight: Absent
  Morbidity: Absent
C57BL/6 female mice; 50 mg/kg single i.p.
  Gross Necropsy: No alteration
C57BL/6 female mice; 100 mg/kg single i.p., 14 days
  Change in body weight: Absent
  Morbidity: Absent
C57BL/6 female mice; 100 mg/kg single i.p.
  Gross Necropsy: No alteration
C57BL/6 female mice; 25, 50, 100 mg/kg i.p., 14 days
  animal weight compared to control group: no significant change in animal weight
C57BL/6 female mice; all groups (25, 50, 100 mg/kg i.p.)
  food consumption, second week: no noticeable difference in food consumption
C57BL/6 female mice; all treated groups (25, 50, 100 mg/kg i.p.), more significant at 100 mg/kg
  food intake, first week: reduction in food intake
